Test results: the supplement of paper PMC10307832

Experiments:
Assay in all cases: relative viability (nuclei count vs DMSO), 5 days (fraction); higher = more cells survive
Bemcentinib + Pictilisib = compound: Nc1nc(Nc2ccc3c(c2)CC[C@@H](N2CCCC2)CC3)nn1-c1cc2c(nn1)-c1ccccc1CCC2 [Bemcentinib] + CS(=O)(=O)N1CCN(Cc2cc3nc(-c4cccc5[nH]ncc45)nc(N4CCOCC4)c3s2)CC1 [Pictilisib] (partner 1 µM)
Summary of the method: (§1)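 One day after seeding in 1536-well plates, lung cancer cell lines were dosed by pin tool. Dosing was either single-drug or a fixed anchor-drug dose plus five library-drug doses (not always all listed) in √10 steps. After 5 days, nuclei were stained in one fix-and-stain step and counted on 4× images, and relative viability is the nuclei count of treated wells over that of vehicle wells, given as the median of duplicate plates.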

Axitinib + OSI-027 = compound: CNC(=O)c1ccccc1Sc1ccc2c(/C=C/c3ccccn3)n[nH]c2c1 [Axitinib] + COc1cccc2cc(-c3nc([C@H]4CC[C@H](C(=O)O)CC4)n4ncnc(N)c34)[nH]c12 [OSI-027] (partner 0.5 µM)
Summary of the method: as §1

[1] = compound: Nc1nc(Nc2ccc3c(c2)CC[C@@H](N2CCCC2)CC3)nn1-c1cc2c(nn1)-c1ccccc1CCC2 [Bemcentinib] + CC(=O)c1c(C)c2cnc(Nc3ccc(N4CCNCC4)cn3)nc2n(C2CCCC2)c1=O [Palbociclib] (partner 0.5 µM)
Summary of the method: as §1

Bemcentinib + Foretinib = compound: Nc1nc(Nc2ccc3c(c2)CC[C@@H](N2CCCC2)CC3)nn1-c1cc2c(nn1)-c1ccccc1CCC2 [Bemcentinib] + COc1cc2c(Oc3ccc(NC(=O)C4(C(=O)Nc5ccc(F)cc5)CC4)cc3F)ccnc2cc1OCCCN1CCOCC1 [Foretinib] (partner 0.25 µM)
Summary of the method: as §1

Row | Cell Line | relative viability (Bemcentinib + Pictilisib; first compound 0.04 µM) | relative viability (Bemcentinib + Pictilisib; first compound 0.1265 µM) | relative viability (Bemcentinib + Pictilisib; first compound 0.4 µM) | relative viability (Bemcentinib + Pictilisib; first compound 1.265 µM) | relative viability (Bemcentinib + Pictilisib; first compound 4 µM) | relative viability (Axitinib + OSI-027; first compound 0.005 µM) | relative viability (Axitinib + OSI-027; first compound 0.01581 µM) | relative viability (Axitinib + OSI-027; first compound 0.05 µM) | relative viability (Axitinib + OSI-027; first compound 0.1581 µM) | relative viability (Axitinib + OSI-027; first compound 0.5 µM) | relative viability ([1]; first compound 0.04 µM) | relative viability ([1]; first compound 0.1265 µM) | relative viability ([1]; first compound 0.4 µM) | relative viability ([1]; first compound 1.265 µM) | relative viability ([1]; first compound 4 µM) | relative viability (Bemcentinib + Foretinib; first compound 0.04 µM) | relative viability (Bemcentinib + Foretinib; first compound 0.1265 µM) | relative viability (Bemcentinib + Foretinib; first compound 0.4 µM) | relative viability (Bemcentinib + Foretinib; first compound 1.265 µM) | relative viability (Bemcentinib + Foretinib; first compound 4 µM)
1 | NCI-H2347 | 0.511 | 0.488 | 0.708 | 0.82 | 0.649 | 0.482 | 0.407 | 0.422 | 0.423 | 0.51 | 0.438 | 0.467 | 0.385 | 0.443 | 0.443 | 0.831 | 0.847 | 0.891 | 0.834 | 0.763
2 | NCI-H2405 | 0.392 | 0.513 | 0.415 | 0.517 | 0.509 | 0.654 | 0.666 | 0.675 | 0.643 | 0.722 | 0.555 | 0.549 | 0.528 | 0.59 | 0.583 | 1.05 | 1.02 | 1.03 | 1.12 | 1.04
3 | NCI-H3122 | 0.234 | 0.62 | 0.579 | 0.699 | 0.646 | 0.959 | 0.946 | 1.01 | 0.709 | 1.02 | 0.148 | 0.192 | 0.155 | 0.192 | 0.201 |  | 1.06 | 0.972 | 0.943 | 0.948
4 | PC-3 [JPC-3] | 0.724 | 0.933 | 0.802 | 0.764 | 0.732 | 0.762 | 0.668 | 0.809 | 0.72 | 0.915 | 0.548 | 0.577 | 0.522 | 0.592 | 0.551 | 1.07 | 1.05 | 1.1 | 0.992 | 1.03
5 | PC-14 | 0.651 | 0.792 | 0.628 | 0.509 | 0.704 | 0.916 | 0.717 | 0.975 | 0.82 | 1.41 | 0.588 | 0.51 | 0.737 | 0.596 | 0.485 | 1.07 | 0.907 | 1 | 0.959 | 1.02
6 | RERF-LC-KJ | 0.535 | 0.575 | 0.652 | 0.562 | 0.572 | 0.701 | 0.529 | 0.553 | 0.503 | 0.61 | 0.964 | 1.07 | 1.05 | 1.24 | 1.18 | 0.943 | 0.941 | 0.919 | 0.829 | 0.984
7 | SK-LU-1 | 0.557 | 0.572 | 0.619 | 0.587 | 0.679 | 0.396 | 0.374 | 0.37 | 0.409 | 0.415 | 0.338 | 0.446 | 0.393 | 0.487 | 0.37 | 0.854 | 0.988 | 0.89 | 0.896 | 0.826
8 | SK-MES-1 | 0.303 | 0.379 | 0.404 | 0.361 | 0.374 | 0.748 | 0.647 | 0.638 | 0.642 | 0.854 | 0.314 | 0.33 | 0.325 | 0.316 | 0.317 | 1.11 | 0.968 | 0.952 | 1.11 | 1.11
9 | SW 1573 | 0.409 | 0.532 | 0.618 | 0.488 | 0.494 | 0.592 | 0.592 | 0.68 | 0.508 | 0.724 | 0.395 | 0.407 | 0.416 | 0.391 | 0.364 | 0.821 | 0.954 | 0.803 | 0.797 | 0.832
10 | UMC-11 | 0.615 | 0.929 | 0.902 | 0.585 | 0.85 | 0.494 | 0.504 | 0.438 | 0.498 | 0.521 | 0.354 | 0.343 | 0.323 | 0.349 | 0.324 | 0.939 | 1.18 | 1.15 | 1.12 | 1.08
